According to patent publication US20230181532A1, “GRANULES FOR 3D PRINTING TECHNOLOGY” (BOARD OF REGENTS, THE UNIVERSITY OF TEXAS SYSTEM, priority 2020, published 2023):

Experiments:
Assay type in all cases: physicochemical
Angle of repose (AOR) = assay: Angle of repose (AOR)
From the text: A 100 mm circular test platform together with a digital height gauge having a range of 0-300 mm and an accuracy of 0.03 mm was used (BEP2, Copley Scientific Limited. Nottingham, UK). […] The surplus powder was collected in a tray below the test platform. The nozzle (10 mm nozzle for the angle of repose) of the funnel was placed 75 mm above the test platform, and the nozzle was secured using the shutter mechanism. 100 g of the sample (drug and granules) were placed in the funnel, and the shutter was moved gently but rapidly to allow the powder to flow. The powder formed a conical on the test platform and started overflowing. […] The height of the powder cone was measured using the digital height gauge and the diameter of the cone was 100 (diameter of the platform was 100 mm). Equation 2 was used to calculate the angle of repose.

[1] = In vitro release testing, pH shift dissolution (USP type II paddle); details: pH 2, 2 h
Protocol: The in vitro release testing was performed using a pH shift protocol to simulate physiological conditions and contrary to the USP dissolution medium i.e., pH 7.2 phosphate buffer. […] Moreover, because of its pKa and hydrophobicity, and the amorphous nature of the drug in the samples of interest, it was important to expose it to acidic conditions before exposing it to relatively basic conditions. […] If the drug exists in its amorphous form in the formulation, it is crucial to study its stability in the acidic pH as in the physiological environment the formulation will be exposed to it first.
For this pH-shift dissolution test, the above-mentioned samples (n=3) were introduced into 750 mL of HCl-KCl buffer (pH 2, 0.1 M, hydrochloric acid-potassium chloride buffer) for 2 h using a 900 mL vessel. 150 mL of phosphate buffer (pH6.8, 0.1 M) was then introduced to each vessel shifting the pH from 2 to 6.8, with a final volume of 900 mL. […] The dissolution of the samples was tested at the final pH of 6.8 for an additional 2 h. The test was conducted using a Paddle type assembly (USP type II). […] Acetonitrile was used to dilute (2-fold) the drawn samples and the previously described method of analysis was used to quantify the API in the samples.

[2] = Flow through orifice powder flow test
From the text: A United States Pharmacopoeia (USP) compliant flowability tester, with funnel attachments (BEP2, Copley Scientific Limited, Nottingham, UK) was used for the flow-through orifice study. The purpose of this test was to stimulate the flow in a hopper or other mass transfer situations (Taylor et al., 2000). The funnel was placed 40 mm above the collecting beaker, and the beaker was placed on a measuring scale. The nozzle was fixed onto the funnel and the shutter mechanism was used to prevent any premature flow from the funnel. 100 g of the sample powder was transferred to the funnel and the test was started 30 s after the transfer (this facilitated floccule formation). The weight was recorded for the samples with respect to the time in triplicates (n=3) for each nozzle diameter (10, 15, and 25 mm) and samples (PA 12 (reference), granules, and drug). Time versus weight curves were constructed for the processed granules and the properties were compared with PA 12.

## COc1ccc2c(c1)c(CC(=O)O)c(C)n2C(=O)c1ccc(Cl)cc1 [IND, Indomethacin]
Angle of repose (AOR)
  flow classification as per the AOR reference table: very poor
Angle of repose (AOR); 10 mm nozzle, 100 g sample, n=3
  angle of repose θ value: 58.2±0.06 °
[1]
  dissolution behaviour in acidic environment: did not show any improvement in their solubility
[2]
  flow through orifice observation: no flow throughout the test
